Data from patent publication US20150315211A1, “SMALL MOLECULES FOR THE MODULATION OF MCL-1 AND METHODS OF MODULATING CELL DEATH, CELL DIVISION, CELL DIFFERENTIATION AND METHODS OF TREATING DISORDERS” (priority 2010, published 2015).
Read-outs that look alike come from different tables or passages of the source.

What was measured:
BCL-XLΔC = BCL-XLΔC (Homo sapiens, UniProt Q07817); assay: High-throughput competitive FP binding screen, FITC-BAD BH3/BCL-XLΔC interaction
MCL-1ΔNΔC [1] = molecular target: MCL-1ΔNΔC (Homo sapiens, UniProt Q07820); assay: High-throughput competitive FP binding screen, FITC-MCL-1 SAHB/MCL-1ΔNΔC interaction; parameters: the C-terminal alpha-helix was deleted from each of these constructs; GST (N, cleaved yes); made in house
MCL-1ΔNΔC [2] = assay: as above
[3] = FITC-BAD BH3/BCL-XLΔC interaction pair, competitive FP screen
[4] = FITC-MCL-1 SAHB/MCL-1ΔNΔC interaction pair, competitive FP screen
[5] = selectivity for MCL-1ΔNΔC over BCL-XLΔC targeting (BCL-XL % Bound minus MCL-1 % Bound)

Sequence of MCL-1ΔNΔC (Homo sapiens, UniProt Q07820) (Q07820 172-320 limits assumed, stated change not applied): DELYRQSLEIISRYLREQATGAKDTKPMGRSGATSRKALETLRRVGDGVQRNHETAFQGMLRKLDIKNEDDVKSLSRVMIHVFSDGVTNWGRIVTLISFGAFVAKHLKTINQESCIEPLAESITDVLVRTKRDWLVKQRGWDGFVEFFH
Sequence of BCL-XLΔC (Q07817 1-212 limits assumed, stated change not applied): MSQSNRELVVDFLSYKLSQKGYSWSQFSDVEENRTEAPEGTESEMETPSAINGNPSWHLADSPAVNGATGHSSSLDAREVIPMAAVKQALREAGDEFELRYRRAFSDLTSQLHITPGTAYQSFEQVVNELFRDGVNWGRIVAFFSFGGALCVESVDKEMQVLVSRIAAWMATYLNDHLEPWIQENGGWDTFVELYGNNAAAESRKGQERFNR

| SMILES | BCL-XL % Bound (BCL-XLΔC; [3]) | MCL-1% Bound (MCL-1ΔNΔC [1]; [4]) | Spec Values (MCL-1ΔNΔC [2]; [5]) | BCL-XL % Bound (BCL-XLΔC) | MCL-1% Bound (MCL-1ΔNΔC [1]) | Spec Values (MCL-1ΔNΔC [2]) |
| --- | --- | --- | --- | --- | --- | --- |
| COc1ccc(N(C)C(=S)Nc2ccc3nc(-c4ccco4)c(-c4ccco4)nc3c2)cc1 [drawing 205] | 81.17% | 8.322% | 72.84 |  |  |  |
| O=C1NC(=O)C(=Cc2ccc(Sc3ccc(Cl)cc3)o2)C(=O)N1 |  |  |  | 92.22% | 39.96% | 52.25 |
| O=C(c1ccccc1)c1nc2ccccc2oc1=O | 43.27% | −19.61% | 62.88 |  |  |  |
| CS(=O)(=O)C1=NN2C(=N)/C(=C\c3ccc(-c4ccc(Cl)cc4)o3)C(=O)N=C2S1 | 82.61% | 33.28% | 49.33 |  |  |  |
| Cc1cccc(C(=O)Oc2ccc3oc(=O)sc3c2)c1 | 92.24% | 44.36% | 47.88 |  |  |  |
| N#C/C(=C/c1ccc(-c2ccc(C(=O)O)cc2)o1)c1ccc(Cl)cc1 | 82.47% | 35.83% | 46.64 |  |  |  |
| O=C(/C=C/c1ccco1)Nc1ccc(Br)cc1 | 96.9% | 47.95% | 48.95 |  |  |  |
| COc1cc(C2Nc3cccc4cccc(c34)N2)cc(I)c1O | 81.48% | 22.81% | 58.66 |  |  |  |
| O=C(OCc1ccc(F)cc1)c1cc(-c2ccco2)nc2ccccc12 | 101.6% | 21.94% | 79.65 |  |  |  |
| O=c1c(O)c(-c2ccc(O)c(O)c2)oc2cc(O)cc(O)c12 [drawing 172] | 92.49% | 9.24% | 83.25 |  |  |  |
| CCc1cccc(NC(=O)/C=C/c2ccco2)c1 | 80.4% | −0.7334% | 81.13 |  |  |  |
| CCOc1cc(C=C2C(=O)N(C)C(=S)N(C)C2=O)ccc1OC(C)C(=O)O (stereo not drawn) |  |  |  | 98.2% | 41.99% | 56.22 |
| O=C1C2=C(C(=O)c3ccccc31)C(c1ccccc1O)c1sc(=O)[nH]c1S2 (stereo not drawn) | 88.86% | 30.41% | 58.45 |  |  |  |
| CC(C)CN1C(=O)/C(=C\c2ccc(-c3ccc(S(N)(=O)=O)cc3)o2)SC1=S | 105.9% | 58.51% | 47.35 |  |  |  |
| CC(C)c1ccc(C2=CC(=O)C=CC2=O)cc1 | 89.1% | 6.516% | 82.58 |  |  |  |
| Cc1ccc(/C=C/C(=O)N2CCN(C(c3ccccc3)c3ccccc3)CC2)o1 | 103.2% | 55.15% | 48.08 |  |  |  |
| Cc1ccc2c(CC(=O)NCC(=O)OCc3ccccc3)coc2c1 | 95.64% | 36.55% | 59.09 |  |  |  |
| c1cc2nsnc2c2c1Nc1nc3nonc3nc1N2 | 57.68% | −8.097% | 65.78 |  |  |  |
| Cc1ccc(C)c2[nH]c(=O)c(C(c3nnnn3C3CCCC3)N3CCCC3)cc12 (stereo not drawn) | 103.3% | 39.75% | 63.57 |  |  |  |
| COC(=O)c1cc(OC(=O)c2ccccc2Br)n(C)n1 | 103.1% | 30.23% | 72.92 |  |  |  |
| O=C(OCC1O[C@H](OC(=O)c2cc(O)c(O)c(OC(=O)c3cc(O)c(O)c(O)c3)c2)[C@H](OC(=O)c2cc(O)c(O)c(OC(=O)c3cc(O)c(O)c(O)c3)c2)[C@@H](OC(=O)c2cc(O)c(O)c(OC(=O)c3cc(O)c(O)c(O)c3)c2)[C@@H]1OC(=O)c1cc(O)c(O)c(OC(=O)c2cc(O)c(O)c(O)c2)c1)c1cc(O)c(O)c(OC(=O)c2cc(O)c(O)c(O)c2)c1 (stereo partly drawn) [Tannic Acid, reference compound] | 98.26% | 15.94% | 82.32 |  |  |  |
| Cc1ccc(NCc2n[nH]c(=S)n2-c2ccccc2)cc1 | 94.84% | 43.22% | 51.62 |  |  |  |
| CN(C)/C=C1\SC(=S)N(c2ccc(Br)cc2)C1=O | 112.3% | 33.27% | 79.08 |  |  |  |
| Cc1ccccc1OCC1=NN2C(=N)/C(=C\c3cccn3-c3cccc(Cl)c3)C(=O)N=C2S1 | 92.89% | 25.28% | 67.61 |  |  |  |
| COc1ccc(C2=CC(=O)C=CC2=O)cc1 | 92.03% | 35.4% | 56.64 |  |  |  |
| Cc1ccc(NC(=O)COc2ncnc3c2cnn3-c2ccccc2)cc1 | 99.91% | 16.2% | 83.71 |  |  |  |
| O=C1N/C(=N\c2ccc(F)cc2)S/C1=C/c1ccc(N2CCCCCC2)o1 | 87.8% | 40.42% | 47.38 |  |  |  |
| C/C(=N\NC(=S)Nc1ccccc1C)c1ccc(O)cc1 | 103.4% | 50.82% | 52.6 |  |  |  |

| SMILES | BCL-XL % Bound (BCL-XLΔC; [3]) | MCL-1% Bound (MCL-1ΔNΔC [1]; [4]) | Spec Values (MCL-1ΔNΔC [2]; [5]) | BCL-XL % Bound (BCL-XLΔC) | MCL-1% Bound (MCL-1ΔNΔC [1]) | Spec Values (MCL-1ΔNΔC [2]) |
| --- | --- | --- | --- | --- | --- | --- |
| Cc1cc2nc(N3CCC(C)CC3)c3ccccc3n2n1 | 106.7% | −1.786% | 108.5 |  |  |  |
| CC1CCC(C(C)C)C(OC(=O)COC(=O)c2ccc(O)cc2)C1 (stereo not drawn) | 106.5% | 55.74% | 50.73 |  |  |  |
| O=C(CSc1nc2c(sc(=S)n2Cc2ccco2)c(=O)n1-c1ccccc1)c1ccc(O)c(O)c1 | 120.9% | 59.44% | 61.48 |  |  |  |
| CC1=NN(c2ccccc2)C(=O)/C1=C/c1ccc(OC(=O)c2ccco2)c(Cl)c1 | 96.2% | 48.53% | 47.67 |  |  |  |
| O=c1oc2cc(Cl)c(O)c(Cl)c2s1 | 104.7% | −5.219% | 109.9 |  |  |  |
| CN1c2ccccc2C(C)(C)C12C=Cc1cc(O)ccc1O2 (stereo not drawn) | 111% | 37.92% | 73.1 |  |  |  |
| O=C1COc2ccc(-c3cs/c(=N\c4ccc(F)cc4)n3/N=C/c3ccc(O)c(O)c3)cc2N1 | 97.64% | 39.12% | 58.52 |  |  |  |
| O=c1c(O)cccc2cc(O)c(O)c(O)c12 | 33.74% | −19.81% | 53.55 |  |  |  |
| CC(C)/N=c1\scc(-c2cccs2)n1/N=C/c1ccc(O)c(O)c1O | 101.7% | −23.1% | 124.8 |  |  |  |
| CCOC(=O)c1c(N2C(=O)C3C4C=CC(O4)C3C2=O)sc2c1CCCC2 (stereo not drawn) | 95.97% | 48.27% | 47.7 |  |  |  |
| CCc1ccc(C=C2C(=O)N(C)C(=S)N(C)C2=O)cc1 |  |  |  | 100.9% | 55.45% | 45.4 |
| COc1cccc(OCc2nnc(SCc3ccccc3)n2C)c1 | 97.51% | 46.56% | 50.95 |  |  |  |
| CC1=C(C#N)C(O)=NC(=O)/C1=C/c1ccc(-c2cccc(C(=O)O)c2)o1 | 89.7% | 36.81% | 52.9 |  |  |  |
| O=C(/C=C/c1ccco1)NC(=S)Nc1ccccc1C(F)(F)F | 99.25% | 47.01% | 52.25 |  |  |  |
| O=C(c1ccccc1)c1ccc2nc(-c3ccco3)c(-c3ccco3)nc2c1 | 101.3% | 14.6% | 86.7 |  |  |  |
| COC(=O)C1C(=O)NC(S)=C(C#N)C1c1ccccc1Cl (stereo not drawn) | 94.15% | 47.02% | 47.12 |  |  |  |
| COc1cc2c(O)c3c(c(-c4ccc5c(c4)OCO5)c2cc1OC)C(=O)OC3 | 104.6% | 37.92% | 66.63 |  |  |  |
| O=C(CC1C(=O)c2ccccc2S1(=O)=O)NC1=NN(c2ccccc2)C(=O)C1 (stereo not drawn) | 65.35% | 7.61% | 57.74 |  |  |  |
| CN(C)c1ccc2cccc(O)c2n1 | 95.09% | 41.22% | 53.86 |  |  |  |
| CC(C)(C)c1cc(Cc2ccc(O)c(O)c2)cc(C(C)(C)C)c1O | 96.57% | −11.56% | 108.1 |  |  |  |
| Cc1ccccc1C=C1C(=O)N(C)C(=S)N(C)C1=O |  |  |  | 99.22% | 51.19% | 48.03 |
| O=c1[nH]cnc2ccc(Br)cc12 | 93.69% | 34.67% | 59.02 |  |  |  |
| CN1CCC(N(C)Cc2cc(C(C)(C)C)c(O)c(C(C)(C)C)c2)CC1 | 109.3% | 63.36% | 45.97 |  |  |  |
| Cc1ncc(CO)c2c1Oc1nc(-c3ccccc3)[nH]c(=S)c1C2 | 131.2% | 66.14% | 65.07 |  |  |  |
| Cn1cc2c(n1)-c1cc(Cl)ccc1SC2 | 89.61% | 23.45% | 66.16 |  |  |  |
| O=C(OCC1O[C@H](OC(=O)c2cc(O)c(O)c(OC(=O)c3cc(O)c(O)c(O)c3)c2)[C@H](OC(=O)c2cc(O)c(O)c(OC(=O)c3cc(O)c(O)c(O)c3)c2)[C@@H](OC(=O)c2cc(O)c(O)c(OC(=O)c3cc(O)c(O)c(O)c3)c2)[C@@H]1OC(=O)c1cc(O)c(O)c(OC(=O)c2cc(O)c(O)c(O)c2)c1)c1cc(O)c(O)c(OC(=O)c2cc(O)c(O)c(O)c2)c1 (stereo partly drawn) [drawing 178] | 98.26% | 15.94% | 82.32 |  |  |  |
| Cc1nn(C)c2nc(NNC(=O)c3cccc(C(F)(F)F)c3)ccc12 | 107.3% | 57.07% | 50.23 |  |  |  |
